Patent US12193465B2, “Materials and methods for extending shelf-life of foods” (JP Laboratories, Inc., priority 2021, dated 2025)
Where a name gives a salt, the structure may show the parent alone. Read-outs that look alike come from different tables or passages of the source.

Assays:
[1] = Color change / browning / yellowing of foods (keeping produce green longer); conditions: for Spoilage Time - Sample (Color change): 2% in water sprayed
Description: (§1) All studies were conducted at a room temperature of about 25° C. To determine the effectiveness of a shelf-life extender, a control sample which was untreated with any shelf-life extenders, was tested identical to the test samples. […] All studies in those Examples of Tables 1-6 were conducted in closed plastic or glass containers. Containers, such as plastic containers, without or with lids having holes can be used if it is advantageous to let excess moisture escape or to prevent condensation of moisture released by some produce.
(§2) Food exposed to preservatives or by a sachet was placed in typically polystyrene or acrylic containers depending upon the size and number of food items. Glass jars and bottles were also used. The containers were snap-closed or with a lid. The containers were purchased mainly from Amazon or Webstaurant.com store. When needed, plastic containers with holes or without lids were used.
(§3) For controlled exposure and a constant supply of a preservative to foods, sachets containing one or more drops of preservatives were used. Sachets were made by placing an appropriate amount of a preservative in a plastic bag containing a piece of paper and heat sealing the bag. The sachet bag materials used were Tyvek® for solid preservative, polyethylene, polyester and high barrier multilayer films were used for liquid preservatives. These bags were sealed with a heat sealer. The sachet was typically applied on one side of the container containing food.
(§4) A piece of paper napkin was taped inside a 100 microns thick polyethylene or polyester Ziploc bag. The size of the bag varied from ˜20 cm×30 cm to ˜60 cm×90 cm depended on the sample with sandwich bags up to gallon bags being exemplary. The paper napkin was wetted with 0.1-0.5 ml of a preservative or a mixture of preservatives. A tray of aluminum, stainless steel or glass containing the foods was placed inside the plastic (polyethylene, polyester and multilayer-laminated) bag and almost closed by locking the Ziploc. Air was blown with an air blower from the unclosed end until the bag was fully blown and then quickly closed tightly by locking the remaining Ziploc. If a preservative was a sublimable solid, it was placed in a petri dish and then placed inside the bag in the tray before blowing air. The exposure time was varied from five minutes to a day depending upon the food. […] The assembly was shaken periodically. After the predetermined time, the tray containing produce was removed from the bag, allowed to de-gas for 10-30 minutes in air and the produce was then placed in an appropriately sized container. Glass and stainless steel containers with lids were also often used.
(§5) A solution of one or more preservatives was prepared in a large (e.g., 2-10 liter) glass beaker or a jar. A sack containing the food was prepared by placing the food in a plastic mesh bag. The sack was placed in the solution of the preservative. A smaller glass beaker containing proper amount of water was place over the package to keep the sack soaked in the solution of the preservative during the treatment. The solution was stirred either with a plastic spatula or with a magnet over a magnetic stirrer. After treatment, the mesh sack was removed, the produce was washed in a tray with running water, strained and air dried at 30° C. in an air blowing oven for about 5-10 minutes, while shaking the tray or turning the food periodically followed by placing the sample in an appropriate container.
(§6) The food was placed in mesh trays and sprayed with an aqueous solution (1-10%) of a preservative while shaking the tray or turning the food. The solution was allowed to drain from the tray and the food was air dried in an air blowing oven at 30° C. for about 5-10 minutes, while shaking the tray or turning food periodically followed by placing the sample in an appropriate container.

[2] = test system: parval, methi, coriander, radish, guar; experiment: Shriveling / wilting / dehydration / becoming wet of produce; conditions: for Spoilage Time - Sample (Dehydration): 0.08 hr soaking in 22% solution in water
Description: (§7) Most of the foods changed color or texture.
(§8) The assembly was shaken periodically.

[3] = Color loss of meat and fish; conditions: for Spoilage Time - Sample (Color loss): Sachet, control 2 days
Description: as §7
(§9) These bags were sealed with a heat sealer.

[4] = General shelf-life extension of foods (spoilage criteria of Example 9); conditions: for Effectiveness for controlling one or more spoilage criteria: variety of foods
Description: as §1, §2, §3, §4, §5, §6

fungus = experiment: Fungus growth on treated foods stored in closed containers at room temperature;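 on Effectiveness on ginger: compared with untreated control ginger in closed containers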
Description: as §7
Glass jars and bottles were also used. The containers were snap-closed or with a lid.
as §9, §8

[5] = test system: green tomato, papaya, banana, mango, peppers, tindora; experiment: Ripening of fruits and vegetables (delayed or expedited); conditions: for Ripening, green-to-yellow (or red) color-change: pre-dipping into 10% solution; for Spoilage Time - Sample (Expedited ripening): control 14+ days
Description: as §1, §3, §4, §5
The untreated (control sample) and treated food were placed in proper sized plastic containers and the containers were tightly closed.
The following major criteria were used for determining spoilage of foods: growth of fungus, color change, unpleasant odor, wilting, firmness or shriveling, change of state (liquid to solid or vice versa), and sprouting or germination Example 10: Sources of food.

[6] = test system: grains, legumes, potatoes, garlic; experiment: Germination / sprouting of grains, legumes and tubers; conditions: for Spoilage Time - Sample: Example 111, Germination, Mixed Legumes, 64 hrs P-E, control 3 days
Description: as §9, §8

avocado = experiment: Softening / rotten inside (spoiled flesh) of avocado
Description: as §7, §8

[7] = Curdling / cream / solidification of milk; conditions: pasteurized whole and fat-free milk;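 further: compared with untreated control milk in closed containers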
Description: as §7

Molecule: O=C(O)C(O)c1ccccc1 (stereo not shown) [mandelic acid, Mandelic Acid]
- Spoilage of coriander ([1]; Example 161, soaking in 1% solution): significantly delayed
- Spoilage Time - Sample (Wet) ([2]; Coriander, 0.5 hr soaking in 1% solution in water, control 7 days): 7+ days

Molecule: N.NC(=O)O [ammonium carbamate, Ammonium carbamate]
- Loss of pinkish fleshy color ([3]; Example 143, ground beef, sachet, 3rd day, control within 2 days): lost less fleshy pinkish color
- Shelf-life of flowery vegetables [4]: extended shelf-life
- Spoilage Time - Sample (Fungus) (fungus): 80+ days

Molecule: COC(=O)/C=C\C(=O)OC [dimethyl maleate, Dimethyl maleate]
- Ripening ([5]; Example 156, mangoes, sachet, control 16 days): 23 days
- Spoilage Time - Sample (Ripening) ([5]; Mango, Sachet, control 16 days): 23 days

Molecule: O=C1C=CCCC1 [2CY, 2-Cyclohexen-1-one]
- Spoilage Time - Sample ([1]; Example 114, Yellowing, Coriander, 1 hr P-E, control 10 days): 10+ days
- Spoilage Time - Sample ([1]; Example 114, Yellowing, Coriander, 1 hr P-E, control 10 days, listed as 2-cyclohexen-1-one): significantly delayed
- Shelf-life of flowery vegetables [4]: extended shelf-life
- Shelf-life of shelled and unshelled peanuts ([4]; peanuts): extended
- Effectiveness for controlling one or more spoilage criteria [4]: effective to a greater or lesser extent
- Spoilage Time - Sample ([5]; Example 112, Ripeness, Papaya, 2 hrs P-E, control 7 days): 11 days
- Spoilage Time - Sample ([5]; Example 112, Ripeness, Papaya, 2 hrs P-E, control 7 days, listed as 2-cyclohexen-1-one): at least 11 days
- Effectiveness in delaying the ripening of tomatoes ([5]; unsaturated versus saturated homolog): more effective
- Effectiveness on ginger (fungus; ginger, pre-exposure and sachet method): found effective
- Spoilage Time - Sample [6]: 3 days
- Spoilage Time - Sample ([6]; listed as 2-cyclohexen-1-one): delayed or prevented
- Spoilage Time - Sample (avocado; Example 113, Softening, Avocado, 2 hrs P-E, control 2 days): 2 days
- Spoiling of the flesh with development of fungus (avocado; avocados, Examples 77, 78, 107, 108, 113 & 171): significantly delayed

Molecule: CCOCCO [2-ethoxyethanol, 2-Ethoxyethanol]
- Spoilage Time - Sample (Ripening) ([5]; Mango, 2 hrs P-E, control 16 days): 23 days

Molecule: OB(O)c1ccccc1 [phenylboronic acid, Phenylboronic acid]
- Curdling of milk [7]: delayed curdling
- Spoilage Time - Sample (Color change) ([1]; Broccoli, control 4 days): 28 days
- Color change from green to brown on the skin ([1]; Example 137, limes, sprayed with 2% solution in water, room temperature, control 6 days): > 10 days
- Spoilage Time - Sample (Color change) ([1]; Lime, control 6 days): 6+ days
- Spoilage Time - Sample (Color change) ([1]; Methi, control 4 days): 28 days
- Spoilage Time - Sample (Fungus) (fungus; Blueberry, 2% in water sprayed, control 6 days): 10+ days
- Spoilage Time - Sample (Fungus) (fungus; Strawberry, 2% in water sprayed, control 6 days): 10+ days
- Fungus growth (fungus; strawberries, raspberries, blackberries and lychee): either prevented or significantly delayed
- Germination/sprouting ([6]; Example 140, grains, mainly unhusked rice and soft white wheat, 2% spray, control 2 days): > 10 days
- Spoilage Time - Sample (Germination) ([6]; Grains (mixed legumes and soft white wheat), 2% in water sprayed, control 2 days): 7+ days

Molecule: NCCN [ED, Ethylenediamine]
- Spoilage Time - Sample ([1]; Example 131, Color change, Parsley, 0.25 hr P-E, control 7 days): 22+ days
- Spoilage Time - Sample ([1]; Example 131, Color change, Parsley, 0.25 hr P-E, control 7 days, listed as ethylenediamine): significantly delayed
- Effectiveness for controlling one or more spoilage criteria [4]: effective to a greater or lesser extent
- Spoilage Time - Sample ([5]; Example 132, Ripening, Banana, 0.25 hr P-E, control 18 days): 21+ days
- Spoilage Time - Sample ([5]; Example 132, Ripening, Banana, 0.25 hr P-E, control 18 days, listed as ethylenediamine): > 21 days

Molecule: C[N+](C)(C)CCO.[Cl-] [choline chloride, Choline chloride]
- Spoilage Time - Sample (Color loss) ([1]; Broccoli, 1 hr soaking in 5% solution in water, control 1 day): 8 days
- Remaining green ([1]; Example 149, Bok choy, pre-dipped into 22% solution): remained green longer
- Color change ([1]; Example 150, parsley, pre-dipping/rinsing in 22% solution): delayed the color change
- Color change from green-to-yellow ([1]; Example 152, broccoli, dipped into 5% solution): significantly delayed
- Spoilage Time - Sample (Dehydration) ([2]; Bok Choy, control 7 days): 11 days
- Spoilage Time - Sample (Dehydration) ([2]; Parsley, control 7 days): 11 days
- Ripening, green-to-yellow (or red) color-change ([5]; Example 151, green chili peppers): delayed
- Ripening, green-to-yellow (or red) color-change ([5]; Example 153, Jalapeno peppers): delayed
- Spoilage Time - Sample (Ripening) ([5]; Jalapeño Peppers, 1 hr soaking in 10% solution in water, control 3 days): 8 days
- Spoilage Time - Sample (Ripening) ([5]; Peppers, 2 hrs soaking in 10% solution in water, control 6 days): 13 days
- Sprouting ([6]; Example 154, potatoes, pre-dipping into 10% solution): either prevented or significantly delayed
- Spoilage Time - Sample (Sprouting) ([6]; Fingerling Potatoes, 2 hrs soaking in 10% solution in water, control 10 days): 16 days

Molecule: CCCCOCCO [2-butoxyethanol, 2-Butoxyethanol]
- Effectiveness for controlling one or more spoilage criteria [4]: effective to a greater or lesser extent
- Spoilage Time - Sample (Expedited ripening) ([5]; Mango, Sachet): 8 days
- Fungus growth (fungus; 312 h): > 29 days
- Spoilage Time - Sample (Fungus) (fungus; Red tomato, 2 hrs P-E, control 13 days): 29 days

Molecule: (−)-Menthone
- Dehydration/wilting ([2]; Example 162, radish, vapor, control 5 days): less dehydration/wilting
- Spoilage Time - Sample (Shriveling) ([2]; Radish, 2 hrs P-E, control 5 days): 5 days
- Shelf-life of flowery vegetables [4]: extended shelf-life

Molecule: COC(=O)OC [dimethyl carbonate, Dimethyl carbonate]
- Effectiveness for controlling one or more spoilage criteria [4]: effective to a greater or lesser extent
- Expedited ripening ([5]; Example 155, mango, control around 14 days): 8 days
- Spoilage Time - Sample (Expedited ripening) ([5]; Mango, Sachet): 8 days

Molecule: Ammonium carbonate
- Spoilage Time - Sample (Color loss) ([3]; Ground Beef): 2+ days
- Spoilage Time - Sample (Color loss) ([3]; Ground Chicken): 2+ days
- Spoilage Time - Sample (Color loss) ([3]; Tilapia fish fillet): 2+ days
- Improvements with meat and fish ([3]; meat and fish): demonstrated improvements
- Shelf-life of flowery vegetables [4]: extended shelf-life
- Effectiveness as shelf-life extender ([4]; tofu): effective
